Patent US11555047B2, “One-step synthesis of phosphate-based inhibitors and applications thereof” (UNIVERSITY OF SOUTH CAROLINA, priority 2019, dated 2023)
Read-outs that look alike come from different tables or passages of the source.

Key:
TcRPI-B [1] = molecular target: T1, TcRPI-B (Trypanosoma cruzi, UniProt A0ACM8Q8A9); experiment: TcRPI-B coupled enzyme assay following consumption of NADH at 340 nm; type: biochemical; conditions: for activity at 200 µM: compound 0.2 mM; for activity at 200 µM / activity at 500 µM / activity at 1000 µM / activity at 2000 µM: 2 mM R5P, mean of three determinations ± SD, read-out: percentage of TcRPI-B activity; for activity at 500 µM: compound 0.5 mM; for activity at 1000 µM: compound 1.0 mM; for activity at 2000 µM: compound 2.0 mM
Procedure: (§1) The activity of TcRPI-B was determined by a coupled enzyme assay following consumption of NADH at 340 nm, at 30° C., in a Beckman Coulter DU®600 Spectrophotometer, using a mixture containing 50 mM triethanolamine (pH 7.5), 5 mM MgCl2, […], 0.025 mM thiamine pyrophosphate, 1 unit of transketolase (EC 2.2.1.1), 1 unit of ribulose 5-phosphate 3-epimerase (EC 5.1.3.1), 20 units of triosephosphate isomerase (EC 5.3.1.1), 2 units of α-glycerophosphate dehydrogenase (EC 1.1.1.8), and 2 mM R5P for the screening of the inhibitors. For the determination of Ki, the concentration of R5P was 0.4 mM, 0.8 mM, and 2.0 mM.
(§2) The activity of TcRPE-1 was determined in the same reaction mixture, without TcRPI-B, and replacing R5P by 4 mM ribulose 5-phosphate (Ru5P). […] The reaction was started with the addition of TcRPI-B and further incubated for 10 minutes in the same tube, to surpass the lag observed with the recombinant RPI, and then the mixture was transferred to the spectrophotometer cuvette and the linear part of the progress curve was registered for 15 minutes. The screening of the inhibitors was performed using them at 0, 0.2, 0.5, 1.0 and 2.0 mM for both enzymes, TcRPI-B and TcRPE-1, and for the Ki determination for compound B (FIG. 4) the concentrations used were: 0, 10, 20, 40, 60 and 80 μM, at each R5P concentration used.

TcRPE-1 = TcRPE-1 coupled enzyme assay (same reaction mixture, without TcRPI-B, 4 mM Ru5P); type: biochemical, Trypanosoma cruzi; conditions: mean of three determinations ± SD
Procedure: as §1, §2

TcRPI-B [2] = molecular target: T1, TcRPI-B; conditions: known TcRPI-B inhibitors, FIG. 2; cited from earlier work
TcRPI-B [3] = molecular target: T1, TcRPI-B; experiment: Trypsin digestion LC/MSMS of TcRPI-B exposed to Compound B; type: binding; conditions: 500 μM compound, 100 μM TcRPI-B, 4° C., 30 minutes
Procedure: Sample preparation: Purified TcRPI-B was buffer exchanged into 50 mM ammonium bicarbonate (pH 8.0) by using a PD-10 desalting column (GE Life Sciences). The concentration of TcRPI-B was adjusted to 100 μM for the monomer [TcRPI-B: M.W.=19,816 g/mol; ε280=5,120 M^−1 cm^−1] using an Agilent 8453 UV-Visible spectrophotometer. A protein test sample was incubated with compound B (FIG. 2) at a final concentration of 500 μM at 4° C. for 30 minutes and a control sample was prepared that was in the absence of compound B. Samples to be analyzed by LC/MSMS were first quantitated for protein content using a Pierce™ bicinchoninic acid (BCA) Protein Assay Kit and normalized to 50 μg of protein by diluting the appropriate amount of sample in 50 mM ammonium bicarbonate. Normalized samples were digested with trypsin at a 50:1 protein:trypsin concentration. Samples were incubated for 4 hours and then aliquoted for LC-MS analysis.
Nanoflow LC: Chromatographic separation was achieved using a Thermo Scientific™ EASY-nLC™ 1200 system (Bremen, Germany). Pico-frit columns were purchased from New Objective (Woburn, Mass.) and bomb packed to a length of 20-30 cm with reverse phase ReproSil-Pur® 120 Å C18-AQ 3 μm particles (Dr. Maisch, Germany). […]

Work on `O=C(Cc1ccccc1)NCCOP(=O)(O)O` [Compound A, 2-(2-phenylacetamido)ethyl dihydrogen phosphate] yielded an activity at 200 µM (TcRPI-B [1]) of 98.1 ± 3.2%, an activity at 500 µM (TcRPI-B [1]) of 97.4 ± 0.5% and an activity at 1000 µM (TcRPI-B [1]) of 95.3 ± 4.2%. The activity at 2000 µM (TcRPI-B [1]) was 89.2 ± 3.5%, the “percentage of TcRPE-1 activity” value (TcRPE-1; compound 0.2 mM) was 100 ± 5% and the “percentage of TcRPE-1 activity” value (TcRPE-1; compound 0.5 mM) was 91.9 ± 4.3%. The “percentage of TcRPE-1 activity” value (TcRPE-1; compound 1.0 mM) was 87.4 ± 3.1% and the “percentage of TcRPE-1 activity” value (TcRPE-1; compound 2.0 mM) was 85.9 ± 4.4%.
`O=C(CBr)NCCOP(=O)(O)O` [Compound C, 2-(2-bromoacetamido)ethyl dihydrogen phosphate] showed an activity at 200 µM (TcRPI-B [1]) of 78.5 ± 4.8%, an activity at 500 µM (TcRPI-B [1]) of 62.7 ± 5.9% and an activity at 1000 µM (TcRPI-B [1]) of 41.3 ± 2.7%. For the same compound, the activity at 2000 µM (TcRPI-B [1]) was 18.3 ± 2.5%, the “percentage of TcRPE-1 activity” value (TcRPE-1; compound 0.2 mM) was 91.1 ± 5.1% and the “percentage of TcRPE-1 activity” value (TcRPE-1; compound 0.5 mM) was 85.8 ± 4.4%. For the same compound, the “percentage of TcRPE-1 activity” value (TcRPE-1; compound 1.0 mM) was 77.3 ± 7.5% and the “percentage of TcRPE-1 activity” value (TcRPE-1; compound 2.0 mM) was 65.1 ± 5.2%.
For `O=C[C@H](O)[C@H](O)[C@H](O)[C@H](O)COP(=O)(O)O` [AlI6P], the Ki (TcRPI-B [2]) is given as 15000 µM.
In the case of `O=C(CF)NCCOP(=O)(O)O` [Compound E, 2-(2-fluoroacetamido)ethyl dihydrogen phosphate], the “percentage of TcRPE-1 activity” value (TcRPE-1; compound 0.2 mM) is reported as 111 ± 10%, the “percentage of TcRPE-1 activity” value (TcRPE-1; compound 0.5 mM) is reported as 103 ± 7% and the “percentage of TcRPE-1 activity” value (TcRPE-1; compound 1.0 mM) is reported as 93.2 ± 11.1%. For the same compound, the “percentage of TcRPE-1 activity” value (TcRPE-1; compound 2.0 mM) was 83.5 ± 9.7%.
Work on `O=C(CI)NCCOP(=O)(O)O` [Compound B, 2-(2-iodoacetamido)ethyl dihydrogen phosphate] yielded a Ki (TcRPI-B [1]; Dixon plots, R5P 0.4, 0.8 and 2 mM, inhibitor 0-80 μM, mean of four independent experiments, read-out: inhibition constant (Ki)) of 5.5 ± 0.1 µM, an activity at 200 µM (TcRPI-B [1]) of 25.2 ± 3.5% and an activity at 500 µM (TcRPI-B [1]) of 7.5 ± 3.9%. For the same compound, the activity at 1000 µM (TcRPI-B [1]) was 1.2 ± 0.3%, the activity at 2000 µM (TcRPI-B [1]) was 0% and the type of inhibition (TcRPI-B [1]; plot of [R5P]/V vs. [B], three lines parallel) was “competitive inhibition”. The “percentage of TcRPE-1 activity” value (TcRPE-1; compound 0.2 mM) was 89.5 ± 4%, the “percentage of TcRPE-1 activity” value (TcRPE-1; compound 0.5 mM) was 89.5 ± 4% and the “percentage of TcRPE-1 activity” value (TcRPE-1; compound 1.0 mM) was 103 ± 5%. The “percentage of TcRPE-1 activity” value (TcRPE-1; compound 2.0 mM) was 57.4 ± 0.4% and the “covalent labeling of TcRPI-B peptide V66-R86” value (TcRPI-B [3]) was “bound irreversibly to C69”.
In the case of `O=C(NO)[C@H](O)[C@H](O)COP(=O)(O)O` [Compound 4PEH, 4-phospho-D-erythronohydroxamic acid], the Ki (TcRPI-B [2]) is given as 1200 µM.
With `O=C(CCl)NCCOP(=O)(O)O` [Compound D, 2-(2-chloroacetamido)ethyl dihydrogen phosphate] the activity at 200 µM (TcRPI-B [1]) was 107 ± 9%, the activity at 500 µM (TcRPI-B [1]) was 105 ± 7% and the activity at 1000 µM (TcRPI-B [1]) was 98.5 ± 2.1%. For the same compound, the activity at 2000 µM (TcRPI-B [1]) was 83.7 ± 8.9%, the “percentage of TcRPE-1 activity” value (TcRPE-1; compound 0.2 mM) was 100 ± 6% and the “percentage of TcRPE-1 activity” value (TcRPE-1; compound 0.5 mM) was 103 ± 5%. For the same compound, the “percentage of TcRPE-1 activity” value (TcRPE-1; compound 1.0 mM) was 95.5 ± 7.9% and the “percentage of TcRPE-1 activity” value (TcRPE-1; compound 2.0 mM) was 82.6 ± 12%.
